In ChEMBL document CHEMBL5634141 (Eur J Med Chem, 2023):
Active and inactive are the calls of the source. No cut-off for these calls is given here.

Assays:
[1] = tested on: MIA PaCa-2; experiment: Antitumor activity against human MIA PaCa-2 cells xenografted in BALB/c nude mouse assessed as reduction in percentage of CD31-positive cells at 10 to 30 mg/kg, ip administered for 16 days by immunohistochemical staining analysis; type: functional, organism-based; conditions: dose 10-30 mg/kg, time 16.0 day
[2] = tested on: NCI-H358; experiment: Antiproliferative activity against human NCI-H358 cells expressing KRAS G12C mutant assessed as inhibition of cell growth at 100 nM incubated for 8 days by CCK-8 assay; type: functional, cell-based; conditions: time 8.0 day
[3] = tested on: SW837; experiment: Antiproliferative activity against human SW837 cells expressing KRAS G12C mutant assessed as relative cell viability at 30 nM incubated for 72 hrs in presence of daclolisib by CCK-8 assay; type: functional; conditions: read-out: Activity
[4] = tested on: von Hippel-Lindau disease tumor suppressor/GTPase KRas (Homo sapiens), P01116+P40337 [G12C]; experiment: PROTAC activity at VHL/KRAS G12C mutant in human NCI-H358 cells assessed as induction of protein degradation at 100 nM preincubated with MG132 for 6 hrs followed by compound addition and measured after 48 hrs by Western blot analysis; type: cell-based
[5] = tested on: MIA PaCa-2; experiment: Antitumor activity against human MIA PaCa-2 cells xenografted in BALB/c nude mouse assessed as tumor growth inhibition at 30 mg/kg, ip measured after 16 days relative to control; type: functional; conditions: MIA PaCa-2, 384 h, time 16 day, read-out: TGI
[6] = tested on: NCI-H358; experiment: Antiproliferative activity against human NCI-H358 cells expressing KRAS G12C mutant assessed as relative cell viability at 30 nM incubated for 72 hrs in presence of selumetinib by CCK-8 assay; type: functional; conditions: read-out: Activity
[7] = tested on: von Hippel-Lindau disease tumor suppressor/GTPase KRas (Homo sapiens), P01116+P40337 [G12C]; experiment: PROTAC activity at VHL/KRAS G12C mutant in human NCI-H358 cells assessed as inhibition of ERK phosphorylation at 100 nM incubated for 1 to 8 days by Western blotting analysis; type: cell-based; conditions: time 1-8 day
[8] = tested on: von Hippel-Lindau disease tumor suppressor/GTPase KRas (Homo sapiens), P01116+P40337 [G12C]; experiment: PROTAC activity at VHL/KRAS G12C mutant in human MIA PaCa-2 cells assessed as induction of protein degradation by measuring maximal efficacy by Western blotting analysis relative to control; type: cell-based
[9] = tested on: MIA PaCa-2; experiment: Induction of apoptosis in human MIA PaCa-2 cells assessed as early apoptotic cells at 30 nM incubated for 48 hrs by Annexin V-FITC staining based flow cytometry analysis (reference value: 1.55 %); type: functional
[10] = tested on: NCI-H358; experiment: Induction of apoptosis in human NCI-H358 cells assessed as early apoptotic cells at 100 nM incubated for 48 hrs by Annexin V-FITC staining based flow cytometry analysis (reference value: 1.60 %); type: functional
[11] = tested on: MIA PaCa-2; experiment: Inhibition of colony formation in human MIA PaCa-2 cells expressing KRAS G12C mutant assessed as reduction in cell number at 30 nM incubated for 14 days in presence of AZD4573 by crystal violet staining based analysis; type: functional; conditions: time 14.0 day
[12] = tested on: NCI-H358; experiment: Induction of apoptosis in human NCI-H358 cells assessed as late apoptotic cells at 300 nM incubated for 48 hrs by Annexin V-FITC staining based flow cytometry analysis (reference value: 5.20 %); type: functional
[13] = tested on: MIA PaCa-2; experiment: Inhibition of colony formation in human MIA PaCa-2 cells expressing KRAS G12C mutant assessed as reduction in cell number at 30 nM incubated for 14 days in presence of SHP099 by crystal violet staining based analysis; type: functional; conditions: time 14.0 day
[14] = tested on: MIA PaCa-2; experiment: Antitumor activity against human MIA PaCa-2 cells xenografted in BALB/c nude mouse assessed as tumor growth inhibition at 10 mg/kg, ip measured after 8 days relative to control; type: functional; conditions: MIA PaCa-2, 192 h, time 8 day, read-out: TGI
[15] = tested on: NCI-H358; experiment: Induction of apoptosis in human NCI-H358 cells assessed as early apoptotic cells at 300 nM incubated for 48 hrs by Annexin V-FITC staining based flow cytometry analysis (reference value: 1.60 %); type: functional
[16] = tested on: NCI-H358; experiment: Induction of apoptosis in human NCI-H358 cells assessed as necrotic cells at 30 nM incubated for 48 hrs by Annexin V-FITC staining based flow cytometry analysis (reference value: 1.62 %); type: functional
[17] = tested on: MIA PaCa-2; experiment: Induction of apoptosis in human MIA PaCa-2 cells assessed as necrotic cells at 100 nM incubated for 48 hrs by Annexin V-FITC staining based flow cytometry analysis (reference value: 1.25 %); type: functional
[18] = tested on: Calu-1; experiment: Antiproliferative activity against human Calu-1 cells expressing KRAS G12C mutant assessed as relative cell viability at 30 nM incubated for 72 hrs in presence of MK-2206 by CCK-8 assay; type: functional; conditions: read-out: Activity
[19] = tested on: von Hippel-Lindau disease tumor suppressor/GTPase KRas (Homo sapiens), P01116+P40337 [G12C]; experiment: Protac activity at VHL/KRAS G12C mutant in human MIA PaCa-2 cells assessed as induction of protein degradation in presence of VH032 by Western blot analysis; type: cell-based
[20] = AUC (0 to infinity) in ICR mouse at 30 mg/kg, ip measured after 24 hrs by LC-MS/MS analysis; type: ADME, organism-based; conditions: in vivo
[21] = tested on: NCI-H358; experiment: Antiproliferative activity against human NCI-H358 cells expressing KRAS G12C mutant assessed as relative cell viability at 30 nM incubated for 72 hrs by CCK-8 assay; type: functional; conditions: read-out: Activity
[22] = tested on: MIA PaCa-2; experiment: Induction of cell cycle arrest in human MIA PaCa-2 cells assessed as accumulation of cells at G2/M phase incubated for 48 hrs by propidium iodide staining based flow cytometry analysis; type: functional; conditions: dose 30-300 nM
[23] = Cytotoxicity against HEK293T cells assessed as inhibition of cell growth incubated for 72 hrs by CCK-8 assay; type: toxicity, cell-based, HEK-293T; conditions: human
[24] = tested on: von Hippel-Lindau disease tumor suppressor/GTPase KRas (Homo sapiens), P01116+P40337 [G12C]; experiment: (§1) PROTAC activity at VHL/KRAS G12C mutant in human MIA PaCa-2 cells assessed as induction of protein degradation by Western blotting analysis; type: cell-based
[25] = target: von Hippel-Lindau disease tumor suppressor/GTPase KRas (Homo sapiens, UniProt P01116+P40337, G12C); experiment: as §1; type: cell-based
Sequence of von Hippel-Lindau disease tumor suppressor/GTPase KRas (P01116 whole entry G12C, stated change not applied): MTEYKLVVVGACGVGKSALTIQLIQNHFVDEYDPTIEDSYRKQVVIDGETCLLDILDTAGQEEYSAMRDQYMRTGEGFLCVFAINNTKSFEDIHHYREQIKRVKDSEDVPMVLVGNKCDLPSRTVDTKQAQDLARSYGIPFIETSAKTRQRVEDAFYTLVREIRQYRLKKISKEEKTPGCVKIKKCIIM
Sequence of von Hippel-Lindau disease tumor suppressor/GTPase KRas (P40337 whole entry, stated change not applied): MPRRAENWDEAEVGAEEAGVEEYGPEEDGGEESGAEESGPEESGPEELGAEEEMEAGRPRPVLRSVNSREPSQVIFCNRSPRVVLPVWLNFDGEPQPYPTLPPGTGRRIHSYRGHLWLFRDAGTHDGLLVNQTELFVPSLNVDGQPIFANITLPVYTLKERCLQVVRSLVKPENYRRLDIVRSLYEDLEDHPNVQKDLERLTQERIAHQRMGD

[26] = tested on: MIA PaCa-2; experiment: Antiproliferative activity against human MIA PaCa-2 cells expressing KRAS G12C mutant assessed as relative cell viability at 30 nM incubated for 72 hrs by CCK-8 assay; type: functional; conditions: read-out: Activity
[27] = tested on: SW837; experiment: Antiproliferative activity against human SW837 cells expressing KRAS G12C mutant assessed as relative cell viability at 30 nM incubated for 72 hrs in presence of crizotinib by CCK-8 assay; type: functional; conditions: read-out: Activity
[28] = Cmax in ICR mouse at 30 mg/kg, ip measured after 24 hrs by LC-MS/MS analysis; type: ADME, organism-based; conditions: in vivo
[29] = tested on: MIA PaCa-2; experiment: Induction of apoptosis in human MIA PaCa-2 cells assessed as late apoptotic cells at 300 nM incubated for 48 hrs by Annexin V-FITC staining based flow cytometry analysis (reference value: 5.69 %); type: functional
[30] = tested on: NCI-H358; experiment: Synergistic antiproliferative activity against human NCI-H358 cells expressing KRAS G12C mutant assessed as combination index incubated for 72 hrs in presence of SHP099 by CCK-8 assay; type: functional
[31] = tested on: NCI-H358; experiment: Induction of apoptosis in human NCI-H358 cells assessed as necrotic cells at 300 nM incubated for 48 hrs by Annexin V-FITC staining based flow cytometry analysis (reference value: 1.62 %); type: functional
[32] = tested on: NCI-H358; experiment: Antiproliferative activity against human NCI-H358 cells expressing KRAS G12C mutant assessed as relative cell viability at 30 nM incubated for 72 hrs in presence of MK-2206 by CCK-8 assay; type: functional; conditions: read-out: Activity

C=CC(=O)N1CCN(c2nc(=O)n(-c3c(C)ccnc3C(C)C)c3nc(-c4c(F)cccc4OCC4CCN(CCCC(=O)N[C@H](C(=O)N5C[C@H](O)C[C@H]5C(=O)NCc5ccc(-c6scnc6C)cc5)C(C)(C)C)CC4)c(F)cc23)[C@@H](C)C1
Activity [1]: Active | Activity [2]: Active | viability at 0.03 µM [3]: 0.24% | Activity [4]: inactive | inhibition in vivo at 30 mg/kg [5]: 100% | viability at 0.03 µM [6]: 0.31% | Activity [7]: Active | Emax [8]: > 95% | Activity [9]: 2.66% | Activity [10]: 2.94% | inhibition [11]: Active | Activity [12]: 14.6% | inhibition [13]: Active | inhibition in vivo at 10 mg/kg [14]: 93.4% | Activity [15]: 4.06% | Activity [16]: 1.01% | Activity [17]: 4.09% | viability at 0.03 µM [18]: 0.32% | Activity [19]: inactive | AUC(0-inf) [20]: 21100 ng·h/mL | viability at 0.03 µM [21]: 0.83% | Activity [22]: Dose-Dependent Effect | IC50 at 72 h [23]: > 10000 nM | Activity [24]: Dose-Dependent Effect | DC50 [25]: 28 nM | viability at 0.03 µM [26]: 0.71% | viability at 0.03 µM [27]: 0.36% | Cmax [28]: 6460 ng/mL | Activity [29]: 19.9% | CI [30]: <1 | Activity [31]: 1.7% | viability at 0.03 µM [32]: 0.36%
